1 compound from publication PMC7770833, “Design, Synthesis, and Biological Evaluation of a Series of Oxazolone Carboxamides as a Novel Class of Acid Ceramidase Inhibitors” (Journal of Medicinal Chemistry, 2020) can be followed below.

Series [1] can be described thus: In vitro microsomal stability study, human liver microsomes. The series is classed as in vitro ADME. The protocol: Freshly prepared 10 mM CH3CN stock solution of the test compound was pre-incubated at 37 °C for 15 min with mouse/human liver microsomes added 0.1 M Tris-HCl buffer (pH 7.4). The final concentration was 4.6 μM. After pre-incubation, the cofactors (NADPH, G6P, G6PDH, and MgCl2 pre-dissolved in 0.1 M Tris-HCl) were added to the incubation mixture and the incubation was continued at 37 °C for 1 h. At each time point (0, 5, 15, 30, and 60 min), 30 μL of the incubation mixture was diluted with 200 μL of cold CH3CN spiked with 200 nM of the internal standard, followed by centrifugation at 3300g for 15 min. The supernatant was further diluted with H2O (1:1) for analysis. The concentration of the test compound was quantified by LC/MS–MS on a Waters Acquity UPLC/MS TQD system consisting of TQD MS equipped with an ESI interface. The analyses were run on an Acquity UPLC BEH C18 (50 × 2.1 mm ID, particle size 1.7 μm) with a VanGuard BEH C18 pre-column (5 × 2.1 mm ID, particle size 1.7 μm) at 40 °C. For each compound, the appropriate mobile phase was chosen. ESI was applied in positive mode. The percentage of the test compound remaining at each time point relative to t = 0 was calculated. The t1/2 were determined by a one-phase decay equation using a nonlinear regression of the compound concentration versus time. […]
For orientation: Liver microsomes are vesicles of endoplasmic reticulum, rich in cytochrome P450 enzymes.

The test system of series [2] is human neuroblastoma SH-SY5Y cells. Description: Sphingolipid levels in SH-SY5Y cells (LC/MS). Format: cell-based. The protocol: SH-SY5Y cells were purchased from Sigma Aldrich (Italy) and cultured in DMEM containing 10% FBS at 37 °C and 5% CO2. Drugs were dissolved in DMSO (10 mM) and diluted in cell culture medium with reduced serum (1%) for cell treatments.
Lipid extraction and SL measurements were performed as previously described.[59],[61],[75] Lipids were extracted with a CHCl3/MeOH mixture (2:1, 3 mL) spike with internal standards. The organic phase was collected, dried under N2, and dissolved in CHCl3/MeOH (1:3) for LC/MS analyses. Ceramides and sphingosine were analyzed by LC/MS/MS, using a Waters Acquity UPLC coupled to a Waters Xevo triple quadrupole mass spectrometer (TQMS) and interfaced with an ESI ion source. Separation was performed on a Waters Acquity BEH C18 1.7 μm column (2.1 × 50 mm) at 60 °C. A linear gradient of 0.1% HCOOH in CH3CN/i-PrOH (20:80) as solvent B in 0.1% HCOOH in CH3CN/H2O (20:80) as solvent A and was applied at a flow rate of 0.4 mL/min. The detection of SLs was performed in positive ion mode. Capillary voltage was 3.5 kV and cone voltage was 25 V. The source temperature and desolvation temperatures were set at 120 and 600 °C, respectively. Desolvation gas and cone gas (N2) flows were 800 and 20 L/h, respectively. Ceramides were identified by comparison of their LC retention times and MS/MS fragmentation patterns with those of authentic standards (Avanti Polar Lipids). Multiple reaction monitoring (MRM) ion chromatograms were used to quantify dihydroceramide (Cer(d18:0/16:0), Rt = 4.6 min, m/z: 540.5 > 522.5), palmitoyl ceramide (Cer(d18:1/16:0), Rt = 4.5 min, m/z: 520.3 > 264.2) sphingosine (So(d18:1), Rt = 2.6 min, m/z: 300.2 > 282.2), sphingomyelin (SM(d18:1/16:0), Rt = 4.2 min, m/z: 703.2 > 184.1) and hexosylceramide (HexCer (d18:1/16:0), 4.3 min, m/z: 682.2 > 264.2). Detection and analysis were controlled by Waters MassLynx software version 4.1. Calibration curves were prepared for every experiment.

Consider `CCCCCNC(=O)n1cc(-c2ccc(F)cc2C2CCN(C)CC2)oc1=O` [Compound 32b, 5-[4-Fluoro-2-(1-methyl-4-piperidyl)phenyl]-2-oxo-N-pentyl-oxazole-3-carboxamide], for which, in series [1] (1 h), the “h-liver microsomes % compound remaining at 1 h” value is 80%. The half-life at 4.6 μM in series [1] (pH 7.4, read-out: h-liver microsomal stability t1/2) is greater than 1 h. Moreover, in series [2] (10 μM, time course up to 6 h), the “Cer (d18:0/16:0) level” value is “increased”, the “Cer (d18:1/16:0) level” value is recorded as “increased”, the “HexCer (d18:1/16:0) level” value is recorded as “No major variations” and the “SM (d18:1/16:0) level” value is “No major variations”. The So levels entry in series [2] (10 μM, time course up to 6 h) was “decreased”. Also, in series [2] (3 h incubation, 1-10 μM), the “Cer (d18:0/16:0) level” value is recorded as “accumulation”, the “Cer (d18:1/16:0) level” value was “accumulation”, the “HexCer (d18:1/16:0) level” value is reported as “no major variations” and the “SM (d18:1/16:0) level” value is listed as “no major variations”. For the same compound, in series [2] (3 h incubation, 1-10 μM), the So levels entry is “decrease”.
